Measured values: US6048854A, “2,3-diaminopropionic acid derivative” (Sumitomo Pharmaceuticals Company, Limited, priority 1993, dated 2000)
Where two headings read alike, the source gives them in different places.

Tests used:
platelet aggregation [1] = assay: Platelet aggregation inhibitory activity (ADP-induced, human platelet rich plasma); type: cell-based; conditions: Homo sapiens
Summary of the method: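 Citrated human platelet-rich plasma […] was stirred with test compound for 2 min at 37 °C. Aggregation was then induced with ADP at 3 μg/ml final and monitored by nephelometry. IC50 is the concentration giving 50% inhibition of aggregation.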

human fibrinogen = biological target: T1, human fibrinogen (Homo sapiens, UniProt P05106+P08514); assay: Binding assay of platelet to adhesive protein: fibrinogen (receptor binding inhibition); conditions: Table 4; fixed activated human platelets, 37° C., 60 minutes
T1 construct: centrifuged at 11000 rpm for two minutes to give human platelet; from tissue
T1 sequence (P08514 32-887 limits assumed): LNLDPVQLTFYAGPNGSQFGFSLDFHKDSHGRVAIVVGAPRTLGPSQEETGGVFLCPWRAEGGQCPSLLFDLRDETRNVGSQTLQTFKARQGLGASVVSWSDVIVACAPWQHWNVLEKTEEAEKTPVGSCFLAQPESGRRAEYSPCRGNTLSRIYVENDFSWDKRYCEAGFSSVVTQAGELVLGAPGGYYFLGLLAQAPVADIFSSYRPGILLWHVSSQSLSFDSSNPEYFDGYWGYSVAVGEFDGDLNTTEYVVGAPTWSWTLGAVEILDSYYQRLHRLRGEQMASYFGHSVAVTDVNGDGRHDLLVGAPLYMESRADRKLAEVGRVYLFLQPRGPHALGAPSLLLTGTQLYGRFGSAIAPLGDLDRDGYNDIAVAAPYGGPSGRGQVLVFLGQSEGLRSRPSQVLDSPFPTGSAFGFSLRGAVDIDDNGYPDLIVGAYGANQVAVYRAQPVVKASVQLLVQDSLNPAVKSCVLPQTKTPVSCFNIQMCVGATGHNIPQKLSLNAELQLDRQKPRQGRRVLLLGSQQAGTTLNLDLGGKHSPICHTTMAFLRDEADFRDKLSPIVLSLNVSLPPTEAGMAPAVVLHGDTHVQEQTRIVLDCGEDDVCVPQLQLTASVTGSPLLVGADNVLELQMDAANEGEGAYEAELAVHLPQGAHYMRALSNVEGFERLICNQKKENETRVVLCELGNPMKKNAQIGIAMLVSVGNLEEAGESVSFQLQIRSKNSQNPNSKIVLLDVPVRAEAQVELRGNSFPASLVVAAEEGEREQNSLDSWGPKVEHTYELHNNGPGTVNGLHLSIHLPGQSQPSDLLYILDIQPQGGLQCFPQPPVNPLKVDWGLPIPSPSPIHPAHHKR
T1 sequence (P08514 891-1039 limits assumed): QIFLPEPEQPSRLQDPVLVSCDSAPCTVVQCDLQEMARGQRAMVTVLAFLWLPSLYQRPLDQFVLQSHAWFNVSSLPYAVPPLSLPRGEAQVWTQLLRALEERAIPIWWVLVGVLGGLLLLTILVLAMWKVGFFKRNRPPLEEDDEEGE
T1 sequence (P05106 27-788): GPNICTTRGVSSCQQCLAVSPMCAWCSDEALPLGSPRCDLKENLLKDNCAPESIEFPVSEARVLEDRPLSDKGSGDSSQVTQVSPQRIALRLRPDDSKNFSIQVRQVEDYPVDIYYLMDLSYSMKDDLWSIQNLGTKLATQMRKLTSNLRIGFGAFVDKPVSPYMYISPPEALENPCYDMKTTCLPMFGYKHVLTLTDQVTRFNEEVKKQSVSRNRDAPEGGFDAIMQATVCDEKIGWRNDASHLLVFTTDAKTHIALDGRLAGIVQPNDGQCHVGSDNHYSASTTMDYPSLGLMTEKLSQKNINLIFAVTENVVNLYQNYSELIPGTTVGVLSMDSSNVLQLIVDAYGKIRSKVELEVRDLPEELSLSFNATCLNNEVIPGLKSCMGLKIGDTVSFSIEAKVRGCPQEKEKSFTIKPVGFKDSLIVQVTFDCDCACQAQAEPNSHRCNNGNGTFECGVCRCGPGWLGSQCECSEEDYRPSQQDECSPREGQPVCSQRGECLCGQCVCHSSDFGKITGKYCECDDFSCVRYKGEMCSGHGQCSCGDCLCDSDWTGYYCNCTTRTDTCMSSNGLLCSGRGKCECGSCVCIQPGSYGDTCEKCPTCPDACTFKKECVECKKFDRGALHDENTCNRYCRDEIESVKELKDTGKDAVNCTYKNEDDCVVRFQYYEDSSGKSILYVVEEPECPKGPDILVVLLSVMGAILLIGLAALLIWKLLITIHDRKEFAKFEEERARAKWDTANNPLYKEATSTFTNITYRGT
Procedure: (§1) The blood was taken out from the elbow vein of a normal volunteer, and mixed with 1/10 volume of 3.8% sodium citrate. The blood was centrifuged at 1,000 rpm (150 g) for 10 minutes, and the supernatant is collected as a platelet rich plasma (PRP). The precipitates are centrifuged at 11,000 rpm (6000 g) for two minutes, and the supernatant is collected as a platelet poor plasma (PPP). To PRP is added prostaglandin I2 (PGl2) at a final concentration of 50 ng/ml, and the mixture was centrifuged at 11000 rpm for two minutes to give human platelet. The platelet was activated by washing with 3.8 mM HEPES-buffer (pH 7.4, Tyrode-HEPES buffer) containing 0.14 M sodium chloride, 2.7 mM potassium chloride, 3.7 mM sodium dihydrogen phosphate, 0.98 mM magnesium chloride, 1 mg/ml glucose, 50 ng/ml PGl2 and 0.35% bovine serum albumin (BSA), adding thereto 5 μM epinephrine, and 30 μM ADP (adenosine diphosphate), followed by being allowed to stand at room temperature for five minutes. To the activated platelet was added 0.05% p-formaldehyde, and the mixture was allowed to stand at room temperature for 30 minutes to give the fixed platelet, which was suspended in Tyrode-HEPES buffer to give a platelet suspension of a concentration of 2×10^8 ml^-1.
(§2) Human fibrinogen from which fibronectin was previously removed by passing through gelatin-cepharose, human fibronectin or human vitronectin was diluted with 0.1 M aqueous sodium hydrogen carbonate solution to a concentration of 5 μg/ml, and the protein solution is put into a 96-well microplate at a volume of 200 μl/well. The microplate was allowed to stand at 4° C. overnight. The plate was washed with phosphate buffered saline (PBS), and subjected to blocking with 3% BSA at 37° C. for one hour. To the plate were added a platelet suspension (final concentration, 10^8 ml^-1) and a test compound of various concentrations (total volume, 200 μl/well), and the plate was incubated at 37° C. for 60 minutes. The plate was treated with 1000-fold diluted enzyme (HRP)-labelled anti-mouse IgG polyclonal antibody at 37° C. for 60 minutes, and thereto was added HRP chromogenic substrate (0.1 M phosphate buffer containing 0.4 mg/ml O-phenylenediamine,0.01% hydrogen peroxide, 0.1 M citric acid, pH 5), and reacted at room temperature for 15 minutes. The reaction was terminated by adding thereto 4.5 M sulfuric acid at a volume of 25 μl/well, and the absorbance at 490 nm was measured.

human fibronectin = assay: Binding assay of platelet to adhesive protein: fibronectin (receptor binding inhibition); conditions: Table 4; fixed activated human platelets, 37° C., 60 minutes
Procedure: as §1, §2

human vitronectin = assay: Binding assay of platelet to adhesive protein: vitronectin (receptor binding inhibition); conditions: Table 4; fixed activated human platelets, 37° C., 60 minutes; read-out: receptor binding inhibition (IC50), Bitronectin
Procedure: as §1, §2

platelet aggregation [2] = assay: Platelet aggregation inhibitory activity (ex vivo) after oral administration; type: in vivo; conditions: Cavia porcellus, guinea pig, oral 0.1 mg/kg, ADP 10 μg/ml
Procedure: A canula for collecting blood was inserted into the left common carotid artery of a guinea pig which was anesthetized with pentobarbital (30 mg/kg, i.p.). The blood (1 ml) was taken with a syringe containing 1/10 volume of 3.8% sodium citrate (Kettin-citrate, manufactured by Kokusai Shiyaku Ltd.), and the platelet aggregation ability thereof was measured (as a value before administration). Then, a test compound was orally administered to the guinea pig at a dose of 0.1 mg/kg in a volume of 5 ml/kg, and the blood was collected periodically likewise at 0.5, 1, 2, 4 and 6 hours after the administration of the test compound, and the platelet aggregation ability thereof was measured.
The determination of the platelet aggregation ability was carried out by turbidimetry using a Hematracer (Niko Bioscience) as follows. That is, the blood was centrifuged at 4500 rpm at room temperature for 10 seconds, and the supernatant was considered as platelet rich plasma (PRP), and the precipitate was centrifuged at 11000 rpm for two minutes and its supernatant was considered as platelet poor plasma (PPP), and the photo-transmittance of the PRP and the PPP was adjusted to 0%, and 100%, respectively. A cubet containing PRP (200 μl) was inserted to a measurement well, and […] at 1000 rpm at 37° C. for two minutes, and thereto was added a platelet aggregator; ADP (adenosine diphosphate, Sigma Ltd., 20 μl, final concentration; 10 μg/ml), and the maximum aggregation rate was measured. From the maximum aggregation rate before the administration of the test compound (MAR control) and the maximum aggregation rate after the administration of the test compound (MAR sample), the platelet aggregation inhibitory rate of each test compound was estimated according to the following equation.
Inhibitory rate (%)=(1-(MAR sample/MAR control))×100
The periodical change in the platelet aggregation inhibitory rate of each test compound at a dose of 0.1 mg/kg of oral administration is shown in Table 5.

[3] = Table 2, same manner as Example 17
[4] = 0.5 hr, read-out: platelet aggregation inhibitory rate (%), 0.5 hr
[5] = 1 hr, read-out: platelet aggregation inhibitory rate (%), 1 hr
[6] = 2 hrs, read-out: platelet aggregation inhibitory rate (%), 2 hrs
[7] = 4 hrs, read-out: platelet aggregation inhibitory rate (%), 4 hrs
[8] = 6 hrs, read-out: platelet aggregation inhibitory rate (%), 6 hrs
[9] = Table 3, same manner as Example 17

SMILES | IC50 (platelet aggregation [1]; [3]) [nM] | IC50 (human fibrinogen) [nM] | IC50 (human fibronectin) [nM] | IC50 (human vitronectin) [nM] | IC50 (platelet aggregation [1]; [9]) [nM] | inhibition in vivo at 0.1 mg/kg (platelet aggregation [2]; [4]) [%] | inhibition in vivo at 0.1 mg/kg (platelet aggregation [2]; [5]) [%] | inhibition in vivo at 0.1 mg/kg (platelet aggregation [2]; [6]) [%] | inhibition in vivo at 0.1 mg/kg (platelet aggregation [2]; [7]) [%] | inhibition in vivo at 0.1 mg/kg (platelet aggregation [2]; [8]) [%]
Cc1cc(C)c(S(=O)(=O)N[C@@H](CNC(=O)CCNC(=O)c2ccc(C(=N)N)cc2)C(=O)O)c(C)c1 [Example 19, (2S)-3-(3-(4-amidinobenzoylamino)propanoylamino)-2-(2,4,6-trimethyl)benzenesulfonylaminopropanoic Acid] | 30 | 5 | 47 | 1200 |  | 86 | 93 | 91 | 89 | 91
N=C(N)c1ccc(C(=O)NCCC(=O)NC[C@H](NS(=O)(=O)c2cccc3ccccc23)C(=O)O)cc1 [Example 20] | 57 | 7.3 | 79 | 500 |  | 76 | 91 | 99 | 100 | 100
N=C(N)c1ccc(C(=O)NCCC(=O)NC[C@H](NS(=O)(=O)c2ccccc2C(F)(F)F)C(=O)O)cc1 [Example 21, (2S)-3-(3-(4-amidinobenzoylamino)propanoylamino)-2-(2-trifluoromethyl)benzenesulfonylaminopropanoic Acid] | 15 | 2.2 | 310 | 240 |  | 96 | 99 | 100 | 100 | 100
N=C(N)c1ccc(OCCCC(=O)NC[C@H](NS(=O)(=O)c2ccc(F)cc2)C(=O)O)cc1 [Example 61, (2S)-3-(4-(4-amidinophenoxy)butanoylamino)-2-(4-fluoro)benzenesulfonylaminopropanic Acid] | 24 | 1 | 25 | 380 |  | 45 | 32 | 25 | 48 | 0
N=C(N)c1ccc(OCCCC(=O)NC[C@H](NS(=O)(=O)c2cccc3ccccc23)C(=O)O)cc1 [Example 62, (2S)-3-(4-(4-amidinophenoxy)butanoylamino)-2-(1-naphthalene)sulfonylaminopropanoic Acid] | 26 | 1.1 | 4.5 | 240 |  | 63 | 69 | 63 | 56 | 50
COc1ccc(S(=O)(=O)N[C@@H](CNC(=O)CCCCOc2ccc(C(=N)N)cc2)C(=O)O)cc1 [Example 63, (2S)-3-(5-(4-amidinophenoxy)pentanoylamino)-2-(4-methoxy)benzenesulfonylaminopropanoic Acid] | 15 | 2.2 | 41 | 130 |  | 57 | 48 | 26 | 3 | 0
N=C(N)c1ccc(OCCCCC(=O)NC[C@H](NS(=O)(=O)c2ccccc2)C(=O)O)cc1 [Example 64, (2S)-3-(5-(4-amidinophenoxy)pentanoylamino)-2-benzenesulfonylaminopropanoic Acid] | 32 | 24 | 280 | 4800 |  | 50 | 0 | 0 | 0 | 0
N=C(N)c1ccc(N2CCC(CC(=O)NC[C@H](NS(=O)(=O)c3ccccc3)C(=O)O)CC2)cc1 [Example 69, (2S)-3-(2-(1-(4-amidinophenyl)-4-piperidyl)ethanoylamino)-2-benzenesulfonylaminopropanoic Acid] | 29 | 9.8 | 60 | 970 |  | 69 | 39 | 22 | 6 | 3

Further lines, with some results ahead:

IC50 (platelet aggregation [1]; [3]) [nM] | IC50 (human fibrinogen) [nM] | IC50 (human fibronectin) [nM] | IC50 (human vitronectin) [nM] | IC50 (platelet aggregation [1]; [9]) [nM] | SMILES | inhibition in vivo at 0.1 mg/kg (platelet aggregation [2]; [4]) [%] | inhibition in vivo at 0.1 mg/kg (platelet aggregation [2]; [5]) [%] | inhibition in vivo at 0.1 mg/kg (platelet aggregation [2]; [6]) [%] | inhibition in vivo at 0.1 mg/kg (platelet aggregation [2]; [7]) [%] | inhibition in vivo at 0.1 mg/kg (platelet aggregation [2]; [8]) [%]
 | 22 | 540 | 3500 | 14 | Cc1ccccc1S(=O)(=O)N[C@@H](CNC(=O)CCNC(=O)c1ccc(C(=N)N)cc1)C(=O)O [Example 74, (2S)-3-(3-(4-amidinobenzoylamino)propanoylamino)-2-(2-methyl)benzenesulfonylaminopropanoic Acid] | 92 | 100 | 100 | 100 | 100
 | 8.1 | 110 | 1600 | 34 | Cc1cccc(S(=O)(=O)N[C@@H](CNC(=O)CCNC(=O)c2ccc(C(=N)N)cc2)C(=O)O)c1 [Example 75, (2S)-3-(3-(4-amidinobenzoylamino)propanoylamino)-2-(3-methyl)benzenesulfonylaminopropanoic Acid] | 74 | 82 | 100 | 90 | 74
 | 6.3 | 510 | 540 | 17 | Cc1ccc(S(=O)(=O)N[C@@H](CNC(=O)CCNC(=O)c2ccc(C(=N)N)cc2)C(=O)O)cc1 [Example 76, (2S)-3-(3-(4-amidinobenzoylamino)propanoylamino)-2-(4-methyl)benzenesulfonylaminopropanoic Acid] | 100 | 100 | 100 | 100 | 100
 | 6.7 | 54 | 670 | 65 | N=C(N)c1ccc(C(=O)NCCC(=O)NC[C@H](NS(=O)(=O)c2ccccc2[N+](=O)[O-])C(=O)O)cc1 [Example 77, (2S)-3-(3-(4-amidinobenzoylamino)propanoylamino)-2-(2-nitro)benzenesulfonylaminopropanoic Acid] | 100 | 100 | 100 | 100 | 97
